Data published in the NIST ThermoML archive (doi:10.1021/je800416y).

Key:
[1] = wn = mass fraction of the nth substance listed; details: 101 kPa, Liquid
[2] = xn = mol fraction of the nth substance listed; details: 101 kPa, Liquid

CN(CCO)CCO [N-methyldiethanolamine] + O
mass density [kg/m3]
Details	298.15 K	303.15 K	308.15 K	313.15 K	318.15 K	323.15 K	328.15 K	333.15 K	338.15 K
[1], w1 = 0.3228	1027.27	1024.82	1022.16	1019.44	1016.54	1013.63	1010.47	1007.39	1003.91
[1], w1 = 0.488	1041.37	1038.16	1034.94	1031.74	1028.35	1024.83	1021.38	1017.75	1014.17
[2], x1 = 0.0128	1004.06	1002.48	1000.7	998.731	996.584	994.273	991.808	989.191	986.433
[2], x1 = 0.0212	1008.41	1006.7	1004.8	1002.72	1000.48	998.073	995.518	992.82	989.984
[2], x1 = 0.0498	1020.08	1017.93	1015.63	1013.18	1010.59	1007.87	1005.02	1002.04	998.939
[2], x1 = 0.0645	1026.39	1023.98	1021.43	1018.77	1015.98	1013.06	1010.03	1006.73	1003.61
[2], x1 = 0.0799	1030.85	1028.25	1025.53	1022.69	1019.74	1016.68	1013.51	1010.24	1006.85
[2], x1 = 0.1332	1042.8	1039.65	1036.42	1033.1	1029.71	1026.23	1022.67	1019.02	1015.29
[2], x1 = 0.1557	1045.44	1042.17	1038.83	1035.41	1031.92	1028.34	1024.69	1020.96	1017.15
[2], x1 = 0.1944	1049.91	1046.42	1042.86	1039.23	1035.54	1031.78	1027.97	1024.08	1020.13
[2], x1 = 0.2407	1050.84	1048.11	1044.45	1040.73	1036.95	1033.11	1029.25	1025.29	1021.29
[2], x1 = 0.2725	1052.41	1048.8	1045.14	1041.41	1037.63	1033.74	1029.77	1025.95	1021.9
[2], x1 = 0.366	1052.54	1048.78	1044.97	1041.1	1037.2	1033.24	1029.24	1025.2	1021.1
[2], x1 = 0.4302	1050.97	1047.2	1043.38	1039.51	1035.6	1031.66	1027.68	1023.66	1019.6
[2], x1 = 0.5642	1046.85	1043.08	1039.28	1035.45	1031.61	1027.75	1023.83	1019.88	1015.88
[2], x1 = 0.6687	1041.44	1037.68	1033.89	1030.08	1026.25	1022.4	1018.52	1014.62	1010.7
[2], x1 = 0.7531	1039.27	1035.87	1031.92	1028.73	1025.02	1020.86	1016.84	1012.83	1008.96
